Laboratory results reported in paper PMC4949444 (Scientific Reports, 2016).

Tested on: 3NP-lesioned C57BL/6 mice
Assay: 3-nitropropionic acid (3NP) model of Huntington's disease
Assay type: in vivo
Conditions: for COX-2 (2expΔΔct) / IL-6 (2expΔΔct) / TNF-α (2expΔΔct): striatum mRNA; for % GSH / % SOD activity / %Catalase activity: striatum
Description: Figure 7 VCE-003.2 is neuroprotective in 3NP-intoxicated mice. (a) Behavioural score was determined 12 hours after 3NP intoxication. Mice were treated with VCE-003.2 (20 mg/Kg) alone or combined with T0070907 (5 mg/kg) as indicated. Animals were also treated separately with either VCE-003.2 or T0070907 alone. Hind limb clasping, general locomotor activity, hind limb dystonia and kyphosis were rated from 0 to 2 based on severity (score 0 indicates normal function and 2 indicates the most severe affected function). Values are expressed as means ± SEM (n = 6). (b) Representative images of Nissl staining performed on coronal striatal brain sections from the same mice groups. Photomicrographs of NeuN (Bar size, 50 μm) Iba-1 and glial fibrillary acidic protein (GFAP) immunostained sections through the different group of mice are also shown. (c) Quantification of the different markers was performed with Image J software. Total average number of neurons (NeuN^+), microglia (Iba1^+) and astrocytes (GFAP^+) is shown. Values are expressed as means ± SEM (n = 6). *p < 0.05, **p < 0.01, ***p < 0.001 vs. Vehicle; ^#p < 0.05, ^##p < 0.01, ^###p < 0.001 vs. 3NP; †p < 0.05, ^††p < 0.01, ^†††p < 0.001 vs. the 3NP + VCE-003.2 group.
Mice were housed under standard conditions (12-h light/dark cycle) in groups with access to food and water ad libitum. All experiments were performed in accordance with European Union guideline and approved by the Animal Research Ethic Committee of Córdoba University (2014PI/017) (3NP model) and by the Animal Research Ethic Committee of Complutense University (CEA-UCM 73/2012) (QA model). Procedures were designed to minimize the number of animals used and their suffering. Excitotoxicity was induced by intrastriatal quinolinic acid (QA) administration (100 nmol in 1 μL PBS solution, unilaterally) as previously described[41] at the following coordinates: +0.6 posterior to bregma, +1.85 medio-lateral and -2.7 dorso-ventral to dura, in 12-week-old CD1 male mice (Harlan Ibérica, Barcelona, Spain). Pharmacological manipulation with VCE-003.2 (10 mg/kg body weight) was performed i.p. daily in 2% Tween 20 and 3% DMSO in saline buffer until sacrifice. Control animals received the corresponding vehicle injections. Motor function was assessed by RotaRod analysis conducted with acceleration from 4 to 40 rpm over a period of 570 s in an LE8200 device (Harvard Apparatus, Barcelona, Spain). […] 3NP-treated animals and their respective non-lesioned controls (injected with PBS) were used for pharmacological studies with VCE-003.2. Treatments consisted of 4 i.p. injections every 24 h with 20 mg/kg VCE-003.2 or vehicle (4% DMSO plus 6,2% Tween 20 in saline buffer), with the first and the last injections 30 min before the first and the last injections of 3NP, respectively. In some experiments, mice received a combination of VCE-003.2 and the PPARγ antagonist T0070907 (5 mg/kg) injected 15 minutes before VCE-003.2. In 3NP-lesioned mice, motor activity, hindlimb clasping, dystonia, and truncal dystonia were evaluated following previously described procedures. All behavioural tests were conducted prior to drug injections to avoid acute effects of the compounds under investigation and all animals were euthanized 12 h after the last injection of 3NP and their brains removed. The right hemispheres were used to dissect the striatum which was frozen in RNAlater (Sigma-Aldrich) and stored at −80 °C for biochemical analyses. The left hemispheres were fixed in fresh 4% paraformaldehyde (in 0.1 M PBS) for 48 h at 4 °C and embedded in paraffin wax for staining and immunohistochemical analysis. In all experiments, at least 6 animals were used per experimental group.
Free floating coronal brain slices ([…]) were processed as previously described. […]

[1] = 3NP-lesioned mice, + T0070907 5 mg/kg
[2] = 3NP-treated mice, VCE-003.2 20 mg/kg
[3] = 3NP-treated mice, VCE-003.2 20 mg/kg + T0070907 5 mg/kg
[4] = substance alone, mean ± SEM n=6
[5] = 3NP-treated mice, VCE-003.2 20 mg/kg, % of vehicle control
[6] = substance alone, % of vehicle-treated control

CCCCCC1=C(NCC)C(=O)C(C/C=C(\C)CCC=C(C)C)=C(O)C1=O [VCE-003.2]
loss of Nissl and NeuN+ cells in striatum (3NP-lesioned mice, 20 mg/kg): rescued the loss of Nissl and NeuN^+-cells
microgliosis and astrogliosis (Iba1, GFAP) (3NP-lesioned mice, 20 mg/kg): reduced 3NP-induced microgliosis and astrogliosis
motor deficits: hindlimb clasping, dystonia, kyphosis (3NP-lesioned mice, 20 mg/kg i.p.): improved the motor deficits of 3NP-lesioned mice by reducing hindlimb clasping, dystonia and kyphosis
effect on motor deficits with PPARγ antagonist co-administered [1]: abrogated
neuroprotective activity (Nissl, NeuN) with T0070907 co-administered [1]: prevented the activity of VCE-003.2
behavioural score, substance alone (mice given the substance alone): Neither VCE-003.2 nor T0070907 alone influenced the behavior of the animals
COX-2 (2expΔΔct) [2]: 2.7 ± 0.07^### 2expΔΔct
IL-6 (2expΔΔct) [2]: 1.79 ± 0.2^### 2expΔΔct
TNF-α (2expΔΔct) [2]: 1.56 ± 0.576^## 2expΔΔct
COX-2 (2expΔΔct) [3]: 8.91 ± 1^† 2expΔΔct
IL-6 (2expΔΔct) [3]: 8.18 ± 2.9 2expΔΔct
TNF-α (2expΔΔct) [3]: 3.83 ± 1.17 2expΔΔct
COX-2 (2expΔΔct) [4]: 1.31 ± 0.75 2expΔΔct
IL-6 (2expΔΔct) [4]: 1.14 ± 0.65 2expΔΔct
TNF-α (2expΔΔct) [4]: 1.15 ± 058 2expΔΔct
% GSH [3]: 121.48 ± 15.29%
% SOD activity [3]: 121.46 ± 37.04%
%Catalase activity [3]: 89.08 ± 5.7%
% GSH [5]: 111.7 ± 12.6%
% SOD activity [5]: 221.18 ± 26.91^# %
%Catalase activity [5]: 88.82 ± 6.75^# %
% GSH [6]: 101.81 ± 14.59%
% SOD activity [6]: 115.62 ± 27.34%
%Catalase activity [6]: 99.05 ± 6.1%
